Experimental data: publication PMC10905675, “INX-315, a Selective CDK2 Inhibitor, Induces Cell Cycle Arrest and Senescence in Solid Tumors” (Cancer Discovery, 2023)

Assays:
[1] = test system: parental MCF7 and T47D cells; assay: Cell cycle flow cytometry; assay type: cell-based; settings: abemaciclib 500 nmol/L, 7 days
Description: One hour prior to endpoint, either 10 µmol/L BrdU or EdU was applied to the cells. Cells were stained using the Near-IR Fixable Viability Stain (Invitrogen, L34976) for 20 minutes at room temperature. Cells were fixed and permeabilized using FoxP3/Transcription Factor Staining Buffer Set (eBioscience, 00–5523–00; for BrdU-treated cells) or Click-iT fixative (for EdU-treated cells). DNA was denatured using 2N HCl + 0.5% (v/v) Triton X-100 for 30 minutes. […] Cells were then stained with BrdU antibody (clone 3D4, BioLegend, 364118, RRID:AB_2814318) for 1 hour. The EdU Click-iT reaction was performed using a Click-iT EdU Flow Cytometry Assay Kit (Invitrogen, C10418 or C10425). Prior to acquisition on the BD A3 Symphony or FACSCelesta, DNA was stained using FxCycle Violet ReadyFlow Reagent (BrdU) or FxCycle Far Red nucleic acid stain (Invitrogen, F10348) in combination with Rnase (Sigma R4642) (for EdU-treated cells). A minimum of 10,000 live cell events were recorded for each sample and data was analyzed using Flow Jo (Tree Star, RRID:SCR_008520).

[2] = test system: MMTV-rtTA/tetO-HER2 tumors; assay: Transgenic mammary tumor growth; assay type: in vivo, mice
Description: PDX models were performed by Crown Biosciences (OV5398, GA0103, and GA0114) or XenoSTART (ST4316B). Tumor fragments from stock mice were harvested and implanted subcutaneously into the flank of NOD/SCID mice (OV5398, RRID:IMSR_JAX:001303), BALB/c nude mice (GA0103 and GA0114, RRID:IMSR_RJ:BALB-C-NUDE), or athymic nude mice (Crl:NU(NCr)-Foxn1nu, RRID:IMSR_CRL:490) (ST4316B). For CDX models, female athymic nude mice (Crl:NU(NCr)-Foxn1nu, RRID:IMSR_CRL:490) were inoculated with 1 × 10^7 50% Cultrex OVCAR3 cells in the flank. Experiments performed using MMTV-rtTA/tetO-HER2 mice were performed at the Peter MacCallum Cancer Centre. Tumor formation was induced and sustained in female mice with doxycycline as previously described ([33]). Randomization and treatment in all models began when median tumor volume reached a maximum of 300 mm^3.
Mice were treated via oral gavage. INX-315 was prepared weekly in 100% PEG400; abemaciclib was prepared as previously described ([33]) and ribociclib (Selleckchem, S7440) was prepared weekly in 0.5% methyl cellulose. To generate abemaciclib-resistant MMTV-rtTA/tetO-HER2 tumors, mice were treated continuously with abemaciclib at a dose of 75 mg/kg until tumors resumed growth as described in text. […]

[3] = test system: palbociclib-resistant MCF7 cells; assay: CellTiter Glo viability assay; assay type: cell-based; settings: Homo sapiens, MCF7, Supp Fig S9B, CDK4/6 inhibitor monotherapy; read-out: IC50
Description: (§1) An exception to this is MCF7PDRCl5-1 cells which were first cultured for 5 days without palbociclib then plated as described. MCF7PDRCl5-1 cells were treated with either a dose curve of the indicated CDK4/6i or a dose curve of INX-315 + 1 µmol/L of the indicated CDK4/6i. Cell viability was determined using the CellTiter-Glo assay (Promega, G9241) following manufacturer's instructions. Plates were processed on either BioTek Synergy2 multi-mode (Agilent) or ClarioSTAR (BMG Labtech) plate readers. T47D and MCF7 cells were seeded into […] plates using BioTek 406 (Aglient) and treated with a ten-point dose concentration from 10 µmol/L to 0.3 nmol/L of INX-315 for 2× doubling times. Plates were fixed with 4% PFA and stained with Rhodamine-Phalloidin (Bio-Trend, 00027) and DAPI (5 mg/mL, Invitrogen, catalog no. D1306). Plates were imaged using CellInsight CX7 LZR and DAPI-positive cells were counted using Thermo Fisher Scientific HCS Studio Cell Analysis Software.

[4] = test system: five cell lines with CCNE1 amplification (ovarian cancer); assay: CellTiter Glo viability assay; assay type: cell-based; settings: six days
MKN1 = assay: CellTiter Glo viability assay; assay type: cell-based; settings: 6 days
Description: as §1

Hs68 = assay: CellTiter Glo viability assay; assay type: cell-based; settings: benign human fibroblast cell line Hs68
Description: as §1

| Compound | cells in S-phase [1] [%] | tumors with tumor regression (>25% reduction in tumor volume) ([2]; abemaciclib monotherapy, 163 of 183 tumors) [%] | regressing tumors that had resumed growth (acquired resistance) ([2]; by day 35 of abemaciclib treatment, 142 of 163) [%] | IC50 [3] [µM] | sensitivity of CCNE1-amplified lines [4] | sensitivity of MKN1 (MKN1) | IC50 (Hs68) [µM] |
| --- | --- | --- | --- | --- | --- | --- | --- |
| CCN1CCN(Cc2ccc(Nc3ncc(F)c(-c4cc(F)c5nc(C)n(C(C)C)c5c4)n3)nc2)CC1 [abemaciclib] | < 1 | 89 | 87 | 5.71 | – | – | – |
| CC(=O)c1c(C)c2cnc(Nc3ccc(N4CCNCC4)cn3)nc2n(C2CCCC2)c1=O [palbociclib, reference compound] | – | – | – | > 10 | not sensitive | insensitive | 0.026 |
